Measurements taken from patent US20230000813A1, “COMPOUND FOR THE TREATMENT OF BOVINE OR SWINE RESPIRATORY DISEASE” (Intervet Inc., priority 2016, published 2023).
Values after ≈ are worked out from the molar mass of the structure shown.

Tests used:
Experiment in all cases: MIC, broth-microdilution (CLSI VET01-A4)
Type in all cases: cell-based
[1] = system: Mannheimia haemolytica MH 13093 (XB0472-6014.1, BRD field isolate)
How it was run: (§1)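 Broth microdilution per CLSI VET01-A4 using doubling dilution series of compound. MIC taken as the lowest concentration with no turbidity visible to the unaided eye, interpreted per CLSI VET01-S3.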

[2] = system: Mannheimia haemolytica MH 13065 (XB0446-6003.9, BRD field isolate)
How it was run: as §1

[3] = system: Pasteurella multocida PM 10775 (080130003051, BRD field isolate); details: Pasteurella multocida PM 10775
How it was run: (§2)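 Test compound is serially diluted twofold across microdilution trays, bacteria are grown, and wells are inspected by eye. The lowest concentration showing no growth is recorded as the MIC.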

[4] = system: Mannheimia haemolytica MH 6357 (M7/2, reference strain, cattle infection strain); details: Mannheimia haemolytica MH 6357; read-out: MIC MH 6357
How it was run: as §2

[5] = system: Pasteurella multocida PM 6391 (ATCC 43137, reference strain); details: Pasteurella multocida PM 6391; for MIC: read-out: MIC PM 6391
How it was run: as §2

[6] = system: Mannheimia haemolytica MH 6374 (ATCC 33396, reference strain); details: Mannheimia haemolytica MH 6374; for MIC: read-out: MIC MH 6374
How it was run: as §2

[7] = system: Mannheimia haemolytica MH 10720 (154, BRD field isolate); details: Mannheimia haemolytica MH 10720; for MIC: read-out: MIC MH 10720
How it was run: as §2

[8] = system: Mannheimia haemolytica MH 12587 (1071, BRD field isolate, macrolide-resistance: erm+, E+); details: Mannheimia haemolytica MH 12587, macrolide-resistant
How it was run: as §2

[9] = system: Pasteurella multocida PM 6267 (P 2225 (L386), reference strain, mouse infection strain); details: Pasteurella multocida PM 6267; for MIC: read-out: MIC PM 6267
How it was run: as §2

[10] = system: Pasteurella multocida PM 12080 (IV102277-0093, BRD field isolate); details: Pasteurella multocida PM 12080; for MIC: read-out: MIC PM 12080
How it was run: as §2

| SMILES | MIC [1] [µM] | MIC [2] [µM] | MIC PM 10775 [3] | MIC [4] [µM] | MIC PM 6391 [5] | MIC [6] [µM] | MIC MH 10720 [7] | MIC MH 12587 [8] [µM] | MIC PM 6267 [9] | MIC PM 12080 [10] | MIC [5] [µM] | MIC MH 13065 [2] | MIC MH 6374 [6] | MIC [7] [µM] | MIC [9] [µM] | MIC [10] [µM] | MIC ([3]; read-out: MIC PM 10775) [µM] |
| --- | --- | --- | --- | --- | --- | --- | --- | --- | --- | --- | --- | --- | --- | --- | --- | --- | --- |
| CC(C)(N)C(NC(=O)c1ccc(C#Cc2ccc(CNCc3nccs3)s2)cc1)C(=O)NO (stereo not drawn) [Compound 564] | 0.8 (≈ 0.387 µg/mL) | 0.8 (≈ 0.387 µg/mL) | <=0.1 μM | 0.8 (≈ 0.387 µg/mL) | <=0.1 μM | 0.4 (≈ 0.193 µg/mL) | <=0.1 μM | 0.8 (≈ 0.387 µg/mL) | <=0.1 μM | <=0.1 μM |  |  |  |  |  |  |  |
| CC(C)(O)C(NC(=O)c1ccc(C#Cc2ccc(CNC3CC3)cc2)cc1)C(=O)NO (stereo not drawn) [Compound 565] | 0.8 (≈ 0.337 µg/mL) | 0.4 (≈ 0.169 µg/mL) | <=0.1 μM | 1.6 (≈ 0.674 µg/mL) | <=0.1 μM | 0.4 (≈ 0.169 µg/mL) | <=0.1 μM | 1.6 (≈ 0.674 µg/mL) | <=0.1 μM | <=0.1 μM |  |  |  |  |  |  |  |
| CC(C)(O)C(NC(=O)c1ccc(C#Cc2ccc(CNCc3ccccc3)cc2)cc1)C(=O)NO (stereo not drawn) [Compound 569] | 0.4 (≈ 0.189 µg/mL) | 0.4 (≈ 0.189 µg/mL) | <=0.1 μM | 0.8 (≈ 0.377 µg/mL) | <=0.1 μM | 0.4 (≈ 0.189 µg/mL) | <=0.1 μM | 0.8 (≈ 0.377 µg/mL) | <=0.1 μM | <=0.1 μM |  |  |  |  |  |  |  |
| COc1ccc(CNCc2ccc(C#Cc3ccc(C(=O)NC(C(=O)NO)C(C)(C)O)cc3)cc2)cc1 (stereo not drawn) [Compound 570] | 0.8 (≈ 0.401 µg/mL) | 0.8 (≈ 0.401 µg/mL) | <=0.1 μM | 0.8 (≈ 0.401 µg/mL) |  | 0.8 (≈ 0.401 µg/mL) | <=0.1 μM | 1.6 (≈ 0.803 µg/mL) | <=0.1 μM | <=0.1 μM | 0.4 (≈ 0.201 µg/mL) |  |  |  |  |  |  |
| CC(C)(O)C(NC(=O)c1ccc(C#Cc2ccc(CNCc3cccnc3)cc2)cc1)C(=O)NO (stereo not drawn) [Compound 574] | 0.8 (≈ 0.378 µg/mL) | 0.4 (≈ 0.189 µg/mL) | <=0.1 μM | 0.8 (≈ 0.378 µg/mL) | <=0.1 μM | 0.4 (≈ 0.189 µg/mL) | <=0.1 μM | 1.6 (≈ 0.756 µg/mL) | <=0.1 μM | <=0.1 μM |  |  |  |  |  |  |  |
| CC(C)(O)C(NC(=O)c1ccc(C#Cc2ccc(CNCc3ccnc(Cl)c3)cc2)cc1)C(=O)NO (stereo not drawn) [Compound 575] | 0.4 (≈ 0.203 µg/mL) | 0.2 (≈ 0.101 µg/mL) | <=0.1 μM | 0.4 (≈ 0.203 µg/mL) | <=0.1 μM | 0.4 (≈ 0.203 µg/mL) | <=0.1 μM | 0.4 (≈ 0.203 µg/mL) | <=0.1 μM | <=0.1 μM |  |  |  |  |  |  |  |
| CC(C)(O)C(NC(=O)c1ccc(C#Cc2ccc(CNCc3ccccn3)cc2)cc1)C(=O)NO (stereo not drawn) [Compound 576] | 0.8 (≈ 0.378 µg/mL) | 0.8 (≈ 0.378 µg/mL) | <=0.1 μM | 0.8 (≈ 0.378 µg/mL) | <=0.1 μM | 0.4 (≈ 0.189 µg/mL) | <=0.1 μM | 1.6 (≈ 0.756 µg/mL) | <=0.1 μM | <=0.1 μM |  |  |  |  |  |  |  |
| CC(C)(O)C(NC(=O)c1ccc(C#Cc2ccc(CNCc3ccco3)cc2)cc1)C(=O)NO (stereo not drawn) [Compound 577] | 0.4 (≈ 0.185 µg/mL) | 0.2 (≈ 0.0923 µg/mL) | <=0.1 μM | 0.4 (≈ 0.185 µg/mL) | <=0.1 μM | 0.2 (≈ 0.0923 µg/mL) | <=0.1 μM | 0.8 (≈ 0.369 µg/mL) | <=0.1 μM | <=0.1 μM |  |  |  |  |  |  |  |
| CC(C)(O)C(NC(=O)c1ccc(C#Cc2ccc(CNCc3cccs3)cc2)cc1)C(=O)NO (stereo not drawn) [Compound 578] | 0.2 (≈ 0.0955 µg/mL) |  | <=0.1 μM | 0.4 (≈ 0.191 µg/mL) | <=0.1 μM |  | <=0.1 μM | 0.4 (≈ 0.191 µg/mL) | <=0.1 μM | <=0.1 μM |  | <=0.1 μM | <=0.1 μM |  |  |  |  |
| Cc1ccc(CNCc2ccc(C#Cc3ccc(C(=O)NC(C(=O)NO)C(C)(C)O)cc3)cc2)cc1 (stereo not drawn) [Compound 579] | 0.8 (≈ 0.388 µg/mL) | 0.4 (≈ 0.194 µg/mL) | <=0.1 μM | 0.8 (≈ 0.388 µg/mL) |  | 0.4 (≈ 0.194 µg/mL) | <=0.1 μM | 1.6 (≈ 0.777 µg/mL) | <=0.1 μM | <=0.1 μM | 0.2 (≈ 0.0971 µg/mL) |  |  |  |  |  |  |
| CSC(C)(C)C(NC(=O)c1ccc(C#Cc2ccc(CNC3CC3)cc2)cc1)C(=O)NO (stereo not drawn) [Compound 581] | 0.4 (≈ 0.181 µg/mL) | 0.4 (≈ 0.181 µg/mL) | <=0.1 μM | 0.4 (≈ 0.181 µg/mL) | <=0.1 μM | 0.8 (≈ 0.361 µg/mL) | <=0.1 μM | 1.6 (≈ 0.723 µg/mL) | <=0.1 μM | <=0.1 μM |  |  |  |  |  |  |  |
| CSC(C)(C)C(NC(=O)c1ccc(C#Cc2ccc(CNCc3ccccc3)cc2)cc1)C(=O)NO (stereo not drawn) [Compound 585] | 0.8 (≈ 0.401 µg/mL) | 0.8 (≈ 0.401 µg/mL) | <=0.1 μM | 0.8 (≈ 0.401 µg/mL) |  | 1.6 (≈ 0.803 µg/mL) |  | 1.6 (≈ 0.803 µg/mL) |  |  | 0.4 (≈ 0.201 µg/mL) |  |  | 0.2 (≈ 0.1 µg/mL) | 0.2 (≈ 0.1 µg/mL) | 0.4 (≈ 0.201 µg/mL) |  |
| COc1ccc(CNCc2ccc(C#Cc3ccc(C(=O)NC(C(=O)NO)C(C)(C)SC)cc3)cc2)cc1 (stereo not drawn) [Compound 586] | 1.6 (≈ 0.851 µg/mL) | 1.6 (≈ 0.851 µg/mL) |  | 1.6 (≈ 0.851 µg/mL) |  | 1.6 (≈ 0.851 µg/mL) |  | 1.6 (≈ 0.851 µg/mL) |  |  | 0.8 (≈ 0.425 µg/mL) |  |  | 0.4 (≈ 0.213 µg/mL) | 0.2 (≈ 0.106 µg/mL) | 0.4 (≈ 0.213 µg/mL) | 0.2 (≈ 0.106 µg/mL) |
| CSC(C)(C)[C@H](NC(=O)c1ccc(C#Cc2ccc(CNCc3ccncc3)cc2)cc1)C(=O)NO [Compound 587] | 0.4 (≈ 0.201 µg/mL) | 0.4 (≈ 0.201 µg/mL) | <=0.1 μM | 0.4 (≈ 0.201 µg/mL) | <=0.1 μM | 0.8 (≈ 0.402 µg/mL) | <=0.1 μM | 0.8 (≈ 0.402 µg/mL) | <=0.1 μM | <=0.1 μM |  |  |  |  |  |  |  |
| CSC(C)(C)[C@H](NC(=O)c1ccc(C#Cc2ccc(CNCC#N)cc2)cc1)C(=O)NO [Compound 592] | 0.4 (≈ 0.18 µg/mL) | 0.8 (≈ 0.36 µg/mL) | <=0.1 μM | 0.4 (≈ 0.18 µg/mL) |  | 0.8 (≈ 0.36 µg/mL) | <=0.1 μM | 0.8 (≈ 0.36 µg/mL) | <=0.1 μM |  | 0.2 (≈ 0.0901 µg/mL) |  |  |  |  | 0.2 (≈ 0.0901 µg/mL) |  |
